Data on two substances can be found in publication PMC3114339 (Diabetes Care, 2011).

This test has as its system type 2 diabetic subjects. In words: Euglycemic glucose clamp for 32 h after s.c. injection of basal insulin. The class given is in vivo, human.

Take glargine: where the note is “32-h clamp, statistical significance achieved only versus detemir”, the “interquartile range in time of duration of action (plasma glucose >136 mg/dL)” value was “smaller interquartile range in time of duration of action than NPH and detemir”. For the same substance, where the note is “32-h euglycemic clamp, 0.4 units/kg s.c., relative difference versus NPH”, the “mean GIR AUC0–32 h greater with glargine than NPH” value came out at 31%. Moreover, where the note is “32-h euglycemic clamp, 0.4 units/kg s.c., relative difference versus detemir”, the “mean GIR AUC0–32 h greater with glargine than detemir” value is on record as 42%.
As for detemir, the “plasma free fatty acid concentrations higher with detemir compared with glargine” value (throughout the 32-h clamp study, P < 0.001) is listed as “+26%”. The “plasma free fatty acid concentrations higher with detemir compared with NPH” value (throughout the 32-h clamp study, P = 0.003) is “+15%”.
